US5880157A, “Derivatives of tetramethylcyclopropane” (Yissum Research Development Company of the Hebrew …, priority 1994, dated 1999)

Columns and labels:
[1] = system: maximal electroshock seizure (MES); assay: maximal electroshock seizure (MES) test, mice; settings: for ED50: Mus musculus, read-out: MES ED50; for MES PI (protective index, TD50/ED50) / effective dose in the MES test (ED50) compared with Valproic Acid: mice; for effective dose in the MES test (ED50) compared with Valproic Acid: in words
Source text: (§1) All compounds described before were screened for their ability to protect against seizures in two different models of epilepsy: the maximal electroshock seizure (MES) model; and the subcutaneous pentylenetetrazol (Metrazol) seizure threshold (s.c.Met) test. Agents effective in the MES model have been correlated with the ability to prevent the seizure spread, whereas those agents effective in the s.c. Met model have been correlated with the ability to raise the threshold for excitation of neural tissue. The PI value, the protective index, is calculated as described below.
(§2) The MES test is the most commonly used test to assess activity against these types of seizures.

[2] = neurotoxicity, rotorod ataxia test, mice (i.p.); assay type: in vivo, mouse
Method: (§3) Neurotoxicity of the described compounds was assessed in mice (i.p. administration) by the rotorod ataxia test (See Swinyard et al., Supra, pages 85-100), and also in some cases in rats (p.o. administration) by the positional sense test and gait and stance test (see Swinyard above) .

[3] = system: subcutaneous pentylenetetrazol (Metrazol) seizure threshold; assay: subcutaneous pentylenetetrazol (Metrazol) seizure threshold (s.c. Met) test, mice; settings: for ED50: Mus musculus, sc, read-out: scMet ED50; for scMet PI (protective index, TD50/ED50): mice; for effective doses in the s.c. Met test compared with VPA or ETS: mouse model, in words
Source text: as §1, §2

[4] = neurotoxicity, positional sense test and gait and stance test, rats (p.o.); assay type: in vivo, rat
Method: as §3

[5] = system: maximal electroshock seizure (MES); assay: maximal electroshock seizure (MES) test, rats; settings: for ED50: Rattus norvegicus, read-out: MES ED50; for MES PI (protective index, TD50/ED50) / effective dose in the MES test (ED50) compared with Valproic Acid: rats; for effective dose in the MES test (ED50) compared with Valproic Acid: in words
Source text: as §1, §2

[6] = system: subcutaneous pentylenetetrazol (Metrazol) seizure threshold; assay: subcutaneous pentylenetetrazol (Metrazol) seizure threshold (s.c. Met) test, rats; settings: for ED50: Rattus norvegicus, sc, read-out: scMet ED50; for scMet PI (protective index, TD50/ED50): rats
Source text: as §1, §2

[7] = in words; literature; cited from earlier work

Row | SMILES | ED50 [1] [mg/kg] | MES PI (protective index, TD50/ED50) [1] | effective dose in the MES test (ED50) compared with Valproic Acid [1] | TD50 (median neurological toxic dose) [2] [mg/kg] | ED50 [3] [mg/kg] | scMet PI (protective index, TD50/ED50) [3] | effective doses in the s.c. Met test compared with VPA or ETS [3] | TD50 ([4]; rat, po, read-out: TD50 (median neurological toxic dose)) [mg/kg] | ED50 [5] [mg/kg] | MES PI (protective index, TD50/ED50) [5] | effective dose in the MES test (ED50) compared with Valproic Acid [5] | ED50 [6] [mg/kg] | TD50 ([2]; mouse, ip, read-out: TD50 (median neurological toxic dose)) [mg/kg] | TD50 (median neurological toxic dose) [4] [mg/kg] | scMet PI (protective index, TD50/ED50) [6] | adverse side effects [7]
1 | CC1(C)C(C(=O)NCC(N)=O)C1(C)C [Compound 2, N-[(2,2,3,3-Tetramethylcyclopropyl)carbonyl]-glycinamide] | 173 | 1.5 | lower effective dose in the MES test | 259 | 115 | 2.3 | lower than that found for either VPA or ETS | > 500 | 82 | > 6.1 | lower effective dose in the MES test | > 250 |  |  |  | 
2 | CNC(=O)C1C(C)(C)C1(C)C [Compound 1, N-Methyl-2,2,3,3-tetramethylcyclopropanecarboxamide] | 98 | 0.8 | lower effective dose in the MES test |  | 39 | 2.1 | lower than that found for either VPA or ETS |  | 82 | 2.0 | lower effective dose in the MES test | 45 | 83 | 163 | 3.6 | 
3 | CCC1(C)CC(=O)NC1=O (stereo not shown) [ETS, Ethosuximide, reference compound] | > 1000 |  |  | 441 | 130 |  |  |  | > 1200 |  |  | 54 |  |  |  | 
4 | CC1(C)C(C(N)=O)C1(C)C [Compound 3, 2,2,3,3-Tetramethylcyclopropanecarboxamide] | > 120 |  |  | 99 | 57 | 1.7 | lower than that found for either VPA or ETS |  | > 250 |  |  | 52 |  | 381 | 7.3 | 
5 | CCCC(CCC)C(=O)O [Valproic Acid, reference compound] |  |  |  |  | 149 |  |  |  | 490 |  |  | 180 |  |  |  | considerable adverse side effects including hepatoxicity and teratogenicity
